Converted amounts (≈) assume the structure as drawn. Where two headings read alike, the source gives them in different places.
Experiments:
Staph. aureus C-5113 = test: MIC by agar dilution, Staph. aureus C-5113; assay type: cell-based; conditions: Staphylococcus aureus, C5113, 17 h, Mueller-Hinton agar, read-out: Minimal Inhibitory Concentration (MIC)
Method in brief: (§1)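 Growth inhibition was scored after 17±1 hours at 35°-37° C. on Mueller-Hinton agar bearing twofold compound dilutions, with strains seeded at 10^6 CFU per ml; lowest inhibiting level taken as MIC.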

Ps. aeruginosa DY-2 = test: MIC by agar dilution, Ps. aeruginosa DY-2; assay type: cell-based; conditions: Pseudomonas aeruginosa, DY2, 17 h, read-out: Minimal Inhibitory Concentration (MIC)
Method in brief: as §1

K. pneumoniae NCTC 9632 = test: MIC by agar dilution, K. pneumoniae NCTC 9632; assay type: cell-based; conditions: Klebsiella pneumoniae, NCTC9632, 17 h, read-out: Minimal Inhibitory Concentration (MIC)
Method in brief: as §1

Staph. aureus ATCC 6538P = test: MIC by agar dilution, Staph. aureus ATCC 6538P; assay type: cell-based; conditions: Staphylococcus aureus, ATCC6538P, 17 h, read-out: Minimal Inhibitory Concentration (MIC)
Method in brief: as §1

Staph. aureus Smith = test: MIC by agar dilution, Staph. aureus Smith; assay type: cell-based; conditions: Staphylococcus aureus, 17 h, Mueller-Hinton agar, read-out: Minimal Inhibitory Concentration (MIC)
Method in brief: as §1

P. vulgaris NCTC 8313 = test: MIC by agar dilution, P. vulgaris NCTC 8313; assay type: cell-based; conditions: Proteus vulgaris, NCTC8313, 17 h, read-out: Minimal Inhibitory Concentration (MIC)
Method in brief: as §1

Staph. aureus C-5216 = test: MIC by agar dilution, Staph. aureus C-5216; assay type: cell-based; conditions: Staphylococcus aureus, C5216, 17 h, Mueller-Hinton agar, read-out: Minimal Inhibitory Concentration (MIC)
Method in brief: as §1

B. subtilis ATCC 6633 = test: MIC by agar dilution, B. subtilis ATCC 6633; assay type: cell-based; conditions: Bacillus subtilis, ATCC6633, 17 h, read-out: Minimal Inhibitory Concentration (MIC)
Method in brief: as §1

Ent. cloacae IFO 13535 = test: MIC by agar dilution, Ent. cloacae IFO 13535; assay type: cell-based; conditions: Enterobacter cloacae, IFO13535, 17 h, read-out: Minimal Inhibitory Concentration (MIC)
Method in brief: as §1

[1] = tested on: Gram-negative bacteria such as Pseudomonas aeruginosa; conditions: background art; cited from earlier work
E. coli No. 29 = test: MIC by agar dilution, E. coli No. 29; assay type: cell-based; conditions: Escherichia coli, read-out: Minimal Inhibitory Concentration (MIC)
Method in brief: as §1

Prov. stuartii IFO 12930 = test: MIC by agar dilution, Prov. stuartii IFO 12930; assay type: cell-based; conditions: Providencia stuartii, IFO12930, 17 h, Mueller-Hinton agar, read-out: Minimal Inhibitory Concentration (MIC)
Method in brief: as §1

[2] = tested on: Ps. aeruginosa NCTC 10490; test: MIC by agar dilution, Ps. aeruginosa NCTC 10490; assay type: cell-based; conditions: Pseudomonas aeruginosa, NCTC10490, 17 h, Mueller-Hinton agar, read-out: Minimal Inhibitory Concentration (MIC)
Method in brief: as §1

[3] = tested on: Ser. marcescens IFO 12648; test: MIC by agar dilution, Ser. marcescens IFO 12648; assay type: cell-based; conditions: Serratia marcescens, IFO12648, 17 h, read-out: Minimal Inhibitory Concentration (MIC)
Method in brief: as §1

Staph. aureus C-57 = test: MIC by agar dilution, Staph. aureus C-57; assay type: cell-based; conditions: Staphylococcus aureus, C57, 17 h, Mueller-Hinton agar, read-out: Minimal Inhibitory Concentration (MIC)
Method in brief: as §1

E. coli NIHJ JC-2 = test: MIC by agar dilution, E. coli NIHJ JC-2; assay type: cell-based; conditions: Escherichia coli, NIHJJC2, 17 h, read-out: Minimal Inhibitory Concentration (MIC)
Method in brief: as §1

Ent. aerogenes IFO 12979 = test: MIC by agar dilution, Ent. aerogenes IFO 12979; assay type: cell-based; conditions: Klebsiella aerogenes, IFO12979, 17 h, Mueller-Hinton agar, read-out: Minimal Inhibitory Concentration (MIC)
Method in brief: as §1

E. coli DY-1 = test: MIC by agar dilution, E. coli DY-1; assay type: cell-based; conditions: Escherichia coli, DY1, 17 h, read-out: Minimal Inhibitory Concentration (MIC)
Method in brief: as §1

[4] = tested on: S. epidermidis ATCC 12228; test: MIC by agar dilution, S. epidermidis ATCC 12228; assay type: cell-based; conditions: Staphylococcus epidermidis, ATCC12228, 17 h, read-out: Minimal Inhibitory Concentration (MIC)
Method in brief: as §1

[5] = tested on: Ps. aeruginosa ATCC 10145; test: MIC by agar dilution, Ps. aeruginosa ATCC 10145; assay type: cell-based; conditions: Pseudomonas aeruginosa, ATCC10145, 17 h, Mueller-Hinton agar, read-out: Minimal Inhibitory Concentration (MIC)
Method in brief: as §1

[6] = tested on: Gram-positive bacteria, in particular, Staphylococcus species; conditions: background art; cited from earlier work
M. morganii DY-1 = test: MIC by agar dilution, M. morganii DY-1; assay type: cell-based; conditions: Morganella morganii, DY1, 17 h, read-out: Minimal Inhibitory Concentration (MIC)
Method in brief: as §1

CC(C)(O/N=C(\C(=O)N[C@@H]1C(=O)N2C(C(=O)[O-])=C(C[n+]3ccccc3)CS[C@H]12)c1csc(N)n1)C(=O)O [CAZ, Ceftazidime, reference compound]
MIC (Staph. aureus C-5113): 25 µg/mL (≈ 45.7 µM)
MIC (Ps. aeruginosa DY-2): 1.56 µg/mL (≈ 2.85 µM)
MIC (K. pneumoniae NCTC 9632): 0.05 µg/mL (≈ 0.0915 µM)
MIC (Staph. aureus ATCC 6538P): 1.56 µg/mL (≈ 2.85 µM)
MIC (Staph. aureus Smith): 6.25 µg/mL (≈ 11.4 µM)
MIC (P. vulgaris NCTC 8313): 0.025 µg/mL (≈ 0.0457 µM)
MIC (Staph. aureus C-5216): 25 µg/mL (≈ 45.7 µM)
MIC (B. subtilis ATCC 6633): 1.56 µg/mL (≈ 2.85 µM)
MIC (Ent. cloacae IFO 13535): 1.56 µg/mL (≈ 2.85 µM)
antibacterial activities against Gram-negative bacteria such as Pseudomonas aeruginosa [1]: superior antibacterial activities
MIC (E. coli No. 29; NO.29, 17 h): 0.1 µg/mL (≈ 0.183 µM)
MIC (Prov. stuartii IFO 12930): 0.025 µg/mL (≈ 0.0457 µM)
MIC [2]: 0.1 µg/mL (≈ 0.183 µM)
MIC [3]: 0.025 µg/mL (≈ 0.0457 µM)
MIC (Staph. aureus C-57): 100 µg/mL (≈ 183 µM)
MIC (E. coli NIHJ JC-2): 0.2 µg/mL (≈ 0.366 µM)
MIC (Ent. aerogenes IFO 12979): 0.05 µg/mL (≈ 0.0915 µM)
MIC (E. coli DY-1): 0.05 µg/mL (≈ 0.0915 µM)
MIC [4]: 0.78 µg/mL (≈ 1.43 µM)
MIC [5]: 0.78 µg/mL (≈ 1.43 µM)
antibacterial activities against Gram-positive bacteria, in particular Staphylococcus species [6]: relatively inferior antibacterial activities
MIC (M. morganii DY-1): 0.1 µg/mL (≈ 0.183 µM)

CO/N=C(\C(=O)N[C@@H]1C(=O)N2C(C(=O)O)=C(COC(C)=O)CS[C@H]12)c1csc(N)n1 [CTX, Cefotaxime, reference compound]
MIC (Staph. aureus C-5113): 3.13 µg/mL (≈ 6.87 µM)
MIC (Ps. aeruginosa DY-2; Ps. aeruginosa DY-2, agar dilution, Mueller-Hinton agar): 12.5 µg/mL (≈ 27.4 µM)
MIC (K. pneumoniae NCTC 9632; K. pneumoniae NCTC 9632, agar dilution, Mueller-Hinton agar): 0.025 µg/mL (≈ 0.0549 µM)
MIC (Staph. aureus ATCC 6538P; Staph. aureus ATCC 6538P, agar dilution, Mueller-Hinton agar): 0.78 µg/mL (≈ 1.71 µM)
MIC (Staph. aureus Smith): 1.56 µg/mL (≈ 3.43 µM)
MIC (P. vulgaris NCTC 8313; P. vulgaris NCTC 8313, agar dilution, Mueller-Hinton agar): ≤ 0.006 µg/mL
MIC (Staph. aureus C-5216): 1.56 µg/mL (≈ 3.43 µM)
MIC (B. subtilis ATCC 6633; B. subtilis ATCC 6633, agar dilution, Mueller-Hinton agar): 0.1 µg/mL (≈ 0.22 µM)
MIC (Ent. cloacae IFO 13535; Ent. cloacae IFO 13535, agar dilution, Mueller-Hinton agar): 0.78 µg/mL (≈ 1.71 µM)
antibacterial activities against Gram-negative bacteria such as Pseudomonas aeruginosa [1]: less effective antibacterial activities
MIC (E. coli No. 29; 17 h, E. coli No. 29, agar dilution, Mueller-Hinton agar): ≤ 0.006 µg/mL
MIC (Prov. stuartii IFO 12930): ≤ 0.006 µg/mL
MIC [2]: 0.78 µg/mL (≈ 1.71 µM)
MIC ([3]; Ser. marcescens IFO 12648, agar dilution, Mueller-Hinton agar): 0.05 µg/mL (≈ 0.11 µM)
MIC (Staph. aureus C-57): 100 µg/mL (≈ 220 µM)
MIC (E. coli NIHJ JC-2; E. coli NIHJ JC-2, agar dilution, Mueller-Hinton agar): 0.05 µg/mL (≈ 0.11 µM)
MIC (Ent. aerogenes IFO 12979): 0.025 µg/mL (≈ 0.0549 µM)
MIC (E. coli DY-1; E. coli DY-1, agar dilution, Mueller-Hinton agar): ≤ 0.006 µg/mL
MIC ([4]; S. epidermidis ATCC 12228, agar dilution, Mueller-Hinton agar): 0.1 µg/mL (≈ 0.22 µM)
MIC [5]: 6.25 µg/mL (≈ 13.7 µM)
antibacterial activities against Gram-positive bacteria, in particular Staphylococcus species [6]: have antibacterial activities against Staphylococcus species
MIC (M. morganii DY-1; M. morganii DY-1, agar dilution, Mueller-Hinton agar): 0.025 µg/mL (≈ 0.0549 µM)
